Reference: patent publication US20230017045A1, “PYRIDINE AND PYRIMIDINE CARBOXYLATE HERBICIDES AND METHODS OF USE THEREOF” (Dow AgroSciences LLC, priority 2017, published 2023)
Read-outs that look alike come from different tables or passages of the source.

Tested on: test plant species
Experiment: Post-emergent herbicidal activity test (greenhouse, foliar spray, visual growth reduction)
Format: in vivo
Conditions: post-emergence, 336 h, 140 g ai/ha
Summary of the method: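 Seedlings were raised 7-21 d in a greenhouse under a 15 h photoperiod until the first or second true leaf. Each compound, dissolved in acetone:DMSO 97:3 and diluted into a surfactant-containing spray mixture, was then applied at 187 L/ha. Plants were subirrigated, and growth reduction was scored visually at 14 d.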

[1] = ECHCG: barnyardgrass (Echinochloa crus-galli), 14 days after application, read-out: Visual Growth Reduction (%) 14 Days After Application, ECHCG
[2] = IPOHE: ivy-leaf morning glory (Ipomoea hederacea), 14 days after application, read-out: Visual Growth Reduction (%) 14 Days After Application, IPOHE
[3] = KCHSC: kochia (Bassia scoparia), 14 days after application, read-out: Visual Growth Reduction (%) 14 Days After Application, KCHSC
[4] = ORYSA: rice (Oryza sativa), 14 days after application, read-out: Visual Growth Reduction (%) 14 Days After Application, ORYSA
[5] = SETFA: giant foxtail (Setaria faberi), 14 days after application, read-out: Visual Growth Reduction (%) 14 Days After Application, SETFA
[6] = SORVU: grain sorghum (Sorghum vulgare), 14 days after application, read-out: Visual Growth Reduction (%) 14 Days After Application, SORVU
[7] = STEME: common chickweed (Stellaria media), 14 days after application, read-out: Visual Growth Reduction (%) 14 Days After Application, STEME
[8] = TRZAS: wheat, spring (Triticum aestivum), 14 days after application, read-out: Visual Growth Reduction (%) 14 Days After Application, TRZAS
[9] = blackgrass (Alopecurus myosuroides), 14 Days After Application, read-out: Visual Growth Reduction (%) ALOMY
[10] = canada thistle (Cirsium arvense), 14 Days After Application, read-out: Visual Growth Reduction (%) CIRAR
[11] = crabgrass (Digitaria sanguinalis), 14 Days After Application, read-out: Visual Growth Reduction (%) DIGSA
[12] = lambsquarters (Chenopodium album), 14 Days After Application, read-out: Visual Growth Reduction (%) CHEAL
[13] = redroot pigweed (Amaranthus retroflexus), 14 Days After Application, read-out: Visual Growth Reduction (%) AMARE
[14] = wild oat (Avena fatua), 14 Days After Application, read-out: Visual Growth Reduction (%) AVEFA
[15] = yellow nutsedge (Cyperus esculentus), 14 Days After Application, read-out: Visual Growth Reduction (%) CYPES
[16] = ALOMY: blackgrass (Alopecurus myosuroides), 14 days after application, read-out: Visual Growth Reduction (%) 14 Days After Application, ALOMY
[17] = AMARE: redroot pigweed (Amaranthus retroflexus), 14 days after application, read-out: Visual Growth Reduction (%) 14 Days After Application, AMARE
[18] = AVEFA: wild oat (Avena fatua), 14 days after application, read-out: Visual Growth Reduction (%) 14 Days After Application, AVEFA
[19] = CHEAL: lambsquarters (Chenopodium album), 14 days after application, read-out: Visual Growth Reduction (%) 14 Days After Application, CHEAL
[20] = CIRAR: canada thistle (Cirsium arvense), 14 days after application, read-out: Visual Growth Reduction (%) 14 Days After Application, CIRAR
[21] = CYPES: yellow nutsedge (Cyperus esculentus), 14 days after application, read-out: Visual Growth Reduction (%) 14 Days After Application, CYPES
[22] = DIGSA: crabgrass (Digitaria sanguinalis), 14 days after application, read-out: Visual Growth Reduction (%) 14 Days After Application, DIGSA

SMILES | pest or weed control at 140 g/ha [1] [%] | pest or weed control at 140 g/ha [2] [%] | pest or weed control at 140 g/ha [3] [%] | pest or weed control at 140 g/ha [4] [%] | pest or weed control at 140 g/ha [5] [%] | pest or weed control at 140 g/ha [6] [%] | pest or weed control at 140 g/ha [7] [%] | pest or weed control at 140 g/ha [8] [%] | pest or weed control at 140 g/ha [9] [%] | pest or weed control at 140 g/ha [10] [%] | pest or weed control at 140 g/ha [11] [%] | pest or weed control at 140 g/ha [12] [%] | pest or weed control at 140 g/ha [13] [%] | pest or weed control at 140 g/ha [16] [%] | pest or weed control at 140 g/ha [17] [%] | pest or weed control at 140 g/ha [18] [%] | pest or weed control at 140 g/ha [19] [%] | pest or weed control at 140 g/ha [20] [%] | pest or weed control at 140 g/ha [21] [%] | pest or weed control at 140 g/ha [22] [%] | other results
COC(=O)c1nc(-c2ccc(I)cc2F)c(F)cc1Cl [F328, methyl 3-chloro-5-fluoro-6-(2-fluoro-4-iodophenyl)picolinate] | 0 to 29 | 85 to 94 | 0 to 29 | 0 to 29 | 30 to 44 | 75 to 84 | 0 to 29 | 0 to 29 | 0 to 29 | 0 to 29 | 75 to 84 | 0 to 29 | 30 to 44 |  |  |  |  |  |  |  | pest or weed control at 140 g/ha [14]: 0 to 29%; pest or weed control at 140 g/ha [15]: 0 to 29%
COC(=O)c1nc(-c2ccc(C#N)cc2Cl)c(F)cc1Cl [F186, Methyl 3-chloro-6-(2-chloro-4-cyanophenyl)-5-fluoropicolinate] | 60 to 74 | 95 to 100 | 75 to 84 | 0 to 29 | 85 to 94 | 85 to 94 | 0 to 29 | 30 to 44 |  |  |  |  |  | 0 to 29 | 75 to 84 | 0 to 29 | 85 to 94 | 75 to 84 | 45 to 59 | 75 to 84 | 
O=C(O)c1nc(-c2ccc(SC(F)(F)F)cc2)ccc1Cl [F94, 3-Chloro-6-(4-((trifluoromethyl)thio)phenyl)picolinic acid] | 0 to 29 | 60 to 74 | 0 to 29 | 0 to 29 | 0 to 29 | 0 to 29 | 0 to 29 | 0 to 29 |  |  |  |  |  | 0 to 29 | 0 to 29 | 0 to 29 | 0 to 29 | 30 to 44 | 0 to 29 | 0 to 29 | 
CCCCOC(=O)c1nc(-c2ccc(Cl)c(OC)c2F)ccc1Cl [F280, Butyl 3-chloro-6-(4-chloro-2-fluoro-3-methoxyphenyl) picolinate] | 0 to 29 | 30 to 44 | 60 to 74 | 0 to 29 | 0 to 29 | 0 to 29 | 0 to 29 | 0 to 29 | 0 to 29 | 30 to 44 | 0 to 29 | 85 to 94 | 30 to 44 |  |  |  |  |  |  |  | pest or weed control at 140 g/ha [14]: 0 to 29%; pest or weed control at 140 g/ha [15]: 60 to 74%
CO/N=C/c1c(C(F)(F)F)ccc(-c2ccc(Cl)c(C(=O)OC)n2)c1Cl [F141, Methyl (E)-3-chloro-6-(2-chloro-3-((methoxyimino)methyl)-4-(trifluoromethyl)phenyl)picolinate] | 0 to 29 | 0 to 29 | 60 to 74 | 0 to 29 | 0 to 29 | 0 to 29 | 0 to 29 | 0 to 29 |  |  |  |  |  | 0 to 29 | 75 to 84 | 0 to 29 | 0 to 29 | 0 to 29 | 0 to 29 | 60 to 74 | 
